Paper PMC9283466, “In silico identification of two peptides with antibacterial activity against multidrug-resistant Staphylococcus aureus” (NPJ Biofilms and Microbiomes, 2022)
≈ marks a conversion by molar mass, not a printed value. Bridge positions count the residues as written; N and C are the ends. Peptide text beside a SMILES is read from it.

What was measured:
[1] = test system: A. baumannii (IMI, MER resistant; strain ID not given); assay: microbe, parasite or virus in culture; assay type: cell-based, Acinetobacter baumannii; settings: MER resistant, no strain ID printed
Experimental: (§1) To determine the antimicrobial activity of the new antimicrobial peptides, HG2 and HG4, their minimum inhibitory concentrations (MICs) were determined by broth microdilution method[51] in cation adjusted Mueller Hinton broth (MHB) following the International Organisation for Standardisation (ISO) 20776-1 standard for MIC testing using a final bacterial inoculum of 5 × 10^5 CFU/ml[52]. […] The peptides dissolved in sterile distilled water were added to bacteria culture and incubated overnight at appropriate conditions. The MICs of the peptides and comparator antibiotics were recorded after 18–24 h. The minimum bactericidal concentrations (MBCs) were also determined and were taken as the lowest concentration of the antimicrobial that prevented the growth of bacterial cells after the subculture of cells (from MIC treatment) onto antibiotic-free media.

A. baumannii 515785 = assay: microbe, parasite or virus in culture; assay type: cell-based, Acinetobacter baumannii; settings: 515785
Experimental: as §1

A. baumannii 515908 = assay: microbe, parasite or virus in culture; assay type: cell-based, Acinetobacter baumannii; settings: 515908
Experimental: as §1

A. baumannii 515722 = assay: microbe, parasite or virus in culture; assay type: cell-based, Acinetobacter baumannii; settings: 515722
Experimental: as §1

[2] = test system: eLUCidate Raw 264.7 NF-kB reporter cell line
[3] = test system: MRSA USA300 cytoplasmic membrane; assay type: cell-based, Staphylococcus aureus; settings: for EC50 of membrane permeabilisation: USA300, 3 h
Experimental: Permeabilisation of the bacterial cytoplasmic membrane by HG2 and HG4 peptide was evaluated using the cell-impermeable DNA probe propidium iodide[14],[40]. Logarithmic-phase bacterial suspension of MRSA USA300 was prepared by diluting overnight cultures in fresh MHB (1 in 10 dilutions), incubated (3 h; 37 °C; 200 rpm), and pelleted by centrifugation (5 min; 3000×g). The bacterial cell pellet was then resuspended in sterile PBS at ~10^9 bacteria/ml. Propidium iodide (at 1 mg/ml, Sigma-Aldrich) was added to the bacterial suspension at a final concentration of 60 µM. This suspension (100 µl) was then transferred into black 96-well plates already containing 100 µl of serially diluted HG2 or HG4 peptide in PBS. Kinetics of fluorescence variations (excitation at 530 nm/emission at 590 nm) were then recorded using a microplate reader for a duration of 80 min with incubation at 37 °C. Cetyl trimethylammonium bromide (CTAB) (at 300 µM) served as positive control giving 100% permeabilisation. The permeabilisation effect of HG2 and HG4 were expressed as a percentage of total permeabilisation.

MRSA USA300 cells = assay: Serial passage / resistance assay; assay type: cell-based, Staphylococcus aureus; settings: for fold increase in MIC during serial passage: sub-MIC exposure over 20 days, MRSA USA300; for resistant mutants after serial passage: sub-lethal doses over a period of 20 days
Experimental: In vitro evaluation of the potential for MRSA USA3000 cells to develop resistance to HG2 and HG4 was performed as follows. […] Cultures from the highest concentration that supported growth were diluted 1: 1000 in MHB and used to provide the inoculum for the next passage day. This process was performed for a total duration of 20 days. Any putative mutants recovered were isolated via streak dilution for three generations on MHA, prior to further characterisation.

S. aureus EMRSA-15 = assay: microbe, parasite or virus in culture; assay type: cell-based, Staphylococcus aureus; settings: EMRSA-15
Experimental: as §1

S. aureus ATCC 33591 = assay: microbe, parasite or virus in culture; assay type: cell-based, Staphylococcus aureus; settings: ATCC 33591
Experimental: as §1

[4] = test system: S. aureus USA300 BAA-1717; assay: microbe, parasite or virus in culture; assay type: cell-based, Staphylococcus aureus; settings: USA300
Experimental: as §1

[5] = test system: BEAS-2B (normal airway epithelial cells); assay: Cytotoxicity, resazurin cell viability; assay type: cell-based, human; settings: 48 h
Experimental: (§2) The toxicity of HG2 and HG4 was tested by a well-known method[60] using the following cell types: BEAS-2B (normal airway epithelial cells, ATCC CRL-9609), IMR-90 (normal fibroblasts, ATCC CCL-186) and HepG2 (liver cell line, ATCC HB-8065). BEAS-2B, IMR-90 and HepG2 cells were cultured in Dulbecco’s modified essential medium (DMEM) supplemented with 10% fetal calf serum (FCS), 1% L-glutamine and 1% antibiotics (all from Invitrogen). Cells were routinely grown onto 25 cm^2 flasks maintained in a 5% CO2 incubator at 37 °C. Briefly, cells grown on 25 cm^2 flasks were detached using trypsin-EDTA solution (Thermofisher) and seeded into 96-well cell culture plates (Greiner Bio-one) at ~10^4 cells per well (counted using Mallasez’s chamber). The cells were grown at 37 °C in a 5% CO2 incubator until they reached confluence (~48–72 h of seeding). Wells were then aspirated and increasing concentrations of HG2 or HG4 were added to the cells and incubated for a further 48 h at 37 °C in a 5% CO2 incubator. The wells were then emptied, and cell viability was evaluated using a resazurin based in vitro toxicity assay kit (Sigma-Aldrich) following the manufacturer’s instructions. Briefly, the resazurin stock solution was diluted at 1:100 in sterile PBS containing calcium and magnesium (PBS^++, pH 7.4) and emptied wells were filled with 100 µl of the diluted resazurin solution. After 4 h incubation at 37 °C with the peptide-treated cells, fluorescence intensity was measured using a microplate reader (excitation wavelength of 530 nm/emission wavelength of 590 nm). The fluorescence values were normalised by the controls and expressed as the percentage of cell viability. The IC50 values of HG2 or HG4 on cell viability (i.e. the concentration of peptides causing a reduction of 50% of the cell viability) were calculated using GraphPad® Prism 7 software.

HepG2 (liver cell line) = assay: Cytotoxicity, resazurin cell viability; assay type: cell-based, human; settings: 48 h
Experimental: as §2

[6] = test system: IMR-90 (normal fibroblasts); assay: Cytotoxicity, resazurin cell viability; assay type: cell-based, human; settings: 48 h
Experimental: as §2

SMILES | MIC [1] [µg/mL] | MIC (A. baumannii 515785) [µg/mL] | MIC (A. baumannii 515908) [µg/mL] | MIC (A. baumannii 515722) [µg/mL] | toxicity against reporter cell line (resazurin assay) [2] | EC50 of membrane permeabilisation [3] [µg/mL] | permeabilisation at 1 min ([3]; at MIC concentration) [%] | fold increase in MIC during serial passage (MRSA USA300 cells) | resistant mutants after serial passage (MRSA USA300 cells) | MIC (S. aureus EMRSA-15) [µg/mL] | MIC (S. aureus ATCC 33591) [µg/mL] | MIC [4] [µg/mL] | IC50 (cell viability) [5] [µg/mL] | IC50 (cell viability) (HepG2 (liver cell line)) [µg/mL] | IC50 (cell viability) [6] [µg/mL]
CC[C@H](C)[C@H](NC(=O)[C@H](CC(C)C)NC(=O)[C@H](CC(C)C)NC(=O)[C@H](CC(C)C)NC(=O)[C@H](CCCCN)NC(=O)[C@H](CCCCN)NC(=O)[C@@H](N)CCSC)C(=O)N[C@@H](CC(C)C)C(=O)N[C@@H](Cc1ccccc1)C(=O)N[C@H]1CSSC[C@@H](C(=O)N[C@@H](CCCCN)C(=O)N[C@@H](CCCCN)C(=O)N[C@@H](C)C(=O)N2CCC[C@H]2C(N)=O)NC(=O)CNC(=O)[C@H](C)NC(=O)[C@H](CC(C)C)NC(=O)[C@H](C)NC(=O)[C@H](CC(C)C)NC(=O)[C@H](C)NC(=O)[C@H](CC(C)C)NC1=O [HG2] (H-MKKLLLILFCLALALAGCKKAP-NH2; disulfide 10-18; N-terminus assumed) | 128 (≈ 54.3 µM) | 256 (≈ 109 µM) | 32 (≈ 13.6 µM) | 16 (≈ 6.79 µM) | no toxicity | 1.351 ± 0.27 | 80 | 1–2 fold | did not produce resistant mutants | 32 (≈ 13.6 µM) | 64 (≈ 27.2 µM) | 16 (≈ 6.79 µM) | 120 ± 25 (≈ 50.9 µM) | 359 ± 76 (≈ 152 µM) | 96 ± 21 (≈ 40.7 µM)
CC[C@H](C)[C@H](NC(=O)[C@H](CC(C)C)NC(=O)[C@H](CC(C)C)NC(=O)[C@H](C)NC(=O)CNC(=O)CNC(=O)[C@@H](NC(=O)[C@@H](NC(=O)[C@H](CC(C)C)NC(=O)[C@H](C)NC(=O)[C@H](CC(C)C)NC(=O)CNC(=O)[C@H](CC(C)C)NC(=O)[C@@H](N)C(C)C)[C@@H](C)CC)C(C)C)C(=O)N[C@@H](CCCCN)C(=O)N[C@@H](CCCCN)C(=O)N[C@@H](CCCCN)C(=O)N[C@@H](CCC(N)=O)C(=O)N[C@@H](C)C(=O)N[C@@H](CCCCN)C(=O)N[C@@H](CO)C(N)=O [HG4] (H-VLGLALIVGGALLIKKKQAKS-NH2; N-terminus and C-terminus assumed) | 64 (≈ 30.2 µM) | 128 (≈ 60.4 µM) | 64 (≈ 30.2 µM) | 32 (≈ 15.1 µM) | no toxicity | 13.85 ± 3.22 |  | 1–2 fold | did not produce resistant mutants | 32 (≈ 15.1 µM) | 32 (≈ 15.1 µM) | 32 (≈ 15.1 µM) | > 1000 | > 1000 | 294 ± 42 (≈ 139 µM)
